Source: patent US20210361771A1, “TERPENE COUPLING CONJUGATE” (LABORATOIRES ERIGER, priority 2020, published 2021)
“And” between values parts separate entries of the source, which are not always exact repeats. Identical values can stand only once.

Experiments:
[1] = Stability of the nanoparticulate suspensions over time (DLS); format: physicochemical; settings: suspension stored at 23° C.
Description: The mean particle sizes were measured using the “Dynamic Light Scattering” (DLS) method on a Malvern-Panalytical Nano-Sizer ZS® at 25° C. with a detection angle of 173° and a wavelength of 633 nm. The reported sizes are determined by the mean of three measurements. The measurements were carried out in polystyrene cuvettes.
A solution of conjugate in EtOH (2 mg for 0.5 mL) is added dropwise to vigorously stirred MiliQ water (1 mL). The formation of nanoparticles is observed in that the solution becomes partially cloudy. The suspension that is thus obtained is transferred to a flask and the EtOH is evaporated on a rotary evaporator (200 mbar for 5 min, then 130 mbar for 1 min at 40° C. and at 50 revolutions per minute).
The residual suspension is transferred to a vial and stored at 23° C.
The samples are prepared as follows: 40 μL of the residual suspension is dissolved in 500 μL of MiliQ H2O.
The stability of the suspensions was measured over time and the results are summarized in Tables 2 and 3 and in the graph of FIG. 1 and in the graph of FIG. 2.

[2] = Influence of phytolization on the stability of retinol, HPLC monitoring; format: physicochemical; settings: for A (mU), HPLC area, single measurement: 6 mg/L in H2O/iPrOH 1:1, 21° C., ambient light; for A (mU), HPLC area, Average: average of two measurements
Description: The HPLC analyzes were carried out with an “Ultimate 3000 system” chain, Dionex®, France on a C18 “Vintage series KR C18—5 μm-150×4.6 mm (Interchim®) column. The samples were detected by UV absorption at λ=325 nm.
Vitamin A (retinol) is known to be sensitive to oxygen and UV radiation. The phytolization process allows retinol to be stabilized.
The solutions of retinol and conjugate 9 in nanoparticulate form (6 mg/L in an H2O/iPrOH 1:1 mixture) were stored at 21° C. in ambient light and analyzed by HPLC over time (24 and 48 h).
The variation in the area of the compounds over time is shown over time (average of two measurements)—see Table 5 and the graph of FIG. 3.

Compound: CC1=C(/C=C/C(C)=C/C=C/C(C)=C/COC(=O)CCC(=O)OC/C=C(\C)CCC[C@H](C)CCC[C@H](C)CCCC(C)C)C(C)(C)CCC1 [Conjugate 9, Phytyl Retinyl Succinate]
- d (nm) ([1]; Time 1 h): 167.4 nm
- d (nm) ([1]; Time 24 h): 165.2 nm
- d (nm) ([1]; Time 168 h): 151.8 nm
- d (nm) ([1]; Time 196 h): 131.3 nm
- Variation of areas ([2]; t0): 0.0000
- A (mU), HPLC area, single measurement ([2]; t0): 4.1604 mU and 4.0495 mU
- A (mU), HPLC area, Average ([2]; t0): 4.1050 mU
- A (mU), HPLC area, single measurement ([2]; t24 h): 3.4609 mU and 3.3380 mU
- A (mU), HPLC area, Average ([2]; t24 h): 3.3995 mU
- Variation of areas ([2]; t24 h vs t0): 0.1719
- A (mU), HPLC area, single measurement ([2]; t48 h): 2.9536 mU and 2.9385 mU
- A (mU), HPLC area, Average ([2]; t48 h): 2.9461 mU
- Variation of areas ([2]; t48 h vs t0): 0.2823

Compound: CC1=C(/C=C/C(C)=C/C=C/C(C)=C/CO)C(C)(C)CCC1 [Retinol, retinol]
- Breakdown rate of free retinol compared with conjugate 9 ([2]; free form vs nanoparticulate conjugate, 48 h): twice as quickly
- Variation of areas ([2]; t0): 0.0000
- A (mU), HPLC area, single measurement ([2]; t0): 0.0502 mU and 0.0694 mU
- A (mU), HPLC area, Average ([2]; t0): 0.0598 mU
- A (mU), HPLC area, single measurement ([2]; t24 h): 0.0354 mU and 0.0360 mU
- A (mU), HPLC area, Average ([2]; t24 h): 0.0357 mU
- Variation of areas ([2]; t24 h vs t0): 0.4030
- A (mU), HPLC area, single measurement ([2]; t48 h): 0.0218 mU and 0.0273 mU
- A (mU), HPLC area, Average ([2]; t48 h): 0.0246 mU
- Variation of areas ([2]; t48 h vs t0): 0.5895

Compound: Phytyl Ibuprofenate [Conjugate 3]
- d (nm) ([1]; Time 1 h): 132.9 nm
- d (nm) ([1]; Time 24 h): 154.5 nm
- d (nm) ([1]; Time 168 h): 156.6 nm
- d (nm) ([1]; Time 196 h): 164.1 nm

Compound: Phytyl Diclofenate [Conjugate 4]
- d (nm) ([1]; Time 1 h): 270.0 nm
- d (nm) ([1]; Time 24 h): 369.7 nm
- d (nm) ([1]; Time 168 h): 502.4 nm
- d (nm) ([1]; Time 196 h): 436.8 nm

Compound: C/C(=C\COC(=O)CCC(=O)OC1CCC(C(C)(C)C)CC1)CCC[C@H](C)CCC[C@H](C)CCCC(C)C (mixture of isomers) [Conjugate 7, Phytyl (4-tert-butyl cyclohexyl) succinate]
- d (nm) ([1]; Time 1 h): 256.2 nm
- d (nm) ([1]; Time 24 h): 269.7 nm
- d (nm) ([1]; Time 168 h): 271.2 nm
- d (nm) ([1]; Time 196 h): 269.6 nm
